Measurements reported in publication PMC5560734, “Diflunisal inhibits prestin by chloride-dependent mechanism” (PLoS ONE, 2017).

Molecular target: T1, prestin (SLC26A5) (Mus musculus, UniProt Q99NH7)
T1 construct: endogenous prestin in isolated C57BL/6 mouse outer hair cells
T1 sequence (Q99NH7 1-744): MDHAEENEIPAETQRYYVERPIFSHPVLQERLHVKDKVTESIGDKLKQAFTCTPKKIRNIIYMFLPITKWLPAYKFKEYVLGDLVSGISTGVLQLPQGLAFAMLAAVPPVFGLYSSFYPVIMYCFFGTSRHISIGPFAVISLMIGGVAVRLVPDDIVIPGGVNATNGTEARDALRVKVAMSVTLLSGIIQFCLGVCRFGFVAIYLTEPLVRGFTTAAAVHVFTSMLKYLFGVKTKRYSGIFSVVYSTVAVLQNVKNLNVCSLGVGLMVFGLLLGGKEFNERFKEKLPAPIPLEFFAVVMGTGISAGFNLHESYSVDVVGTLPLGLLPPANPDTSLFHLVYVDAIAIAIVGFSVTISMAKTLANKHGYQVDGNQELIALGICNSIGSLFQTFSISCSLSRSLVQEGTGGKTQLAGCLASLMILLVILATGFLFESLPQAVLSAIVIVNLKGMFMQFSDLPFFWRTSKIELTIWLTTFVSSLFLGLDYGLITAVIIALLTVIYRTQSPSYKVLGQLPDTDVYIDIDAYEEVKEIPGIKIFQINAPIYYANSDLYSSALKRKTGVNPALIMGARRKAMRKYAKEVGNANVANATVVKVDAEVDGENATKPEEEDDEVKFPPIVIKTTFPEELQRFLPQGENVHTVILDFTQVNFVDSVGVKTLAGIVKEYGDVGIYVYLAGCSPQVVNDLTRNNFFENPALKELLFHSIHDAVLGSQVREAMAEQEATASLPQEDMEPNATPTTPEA
Test: whole-cell patch clamp of outer hair cells, non-linear capacitance / charge transfer (Qmax) at […] intracellular chloride
Type: cell-based

Compound: O=C(O)c1cc(-c2ccc(F)cc2F)ccc1O [DFL, diflunisal]
- IC50: 98 µM
